Experimental data from US20070111199A1, “Compounds and method of identifying, synthesizing, optimizing and profiling protein modulators” (priority 2005, published 2007).

system: P210 T315I mutant kinase domain (120 Kd); assay: cell-free purified protein kinase autophosphorylation assay, T315I kinase domain; type: biochemical, human; details: 20 μM cell-free, FIGS. 17 and 18
Description: Each of the compounds was also tested in a standard cell free protein kinase autophosphorylation assay at a concentration of 20 μM as shown in FIG. 18.

Structure (SMILES) | relative potency, cell-free assay vs phenoresponse-based cellular assay
O=C(Nc1cccc(C(F)(F)F)c1)c1cccc(/C=N/Nc2ncc(F)c(N3CCOCC3)n2)n1 [Example C2-122] | more potent in the cell-free assay than in the phenoresponse-based cellular system

target: T1, Ba/F3 cells overexpressing the p210^Bcr-Abl-T315I theramutein (Homo sapiens, UniProt P00519, T315I, cells depend on it); assay: phenoresponse-based cellular assay (cell count/viability), Ba/F3 T315I test cells; parameters: species or system murine; details: FIG. 17
T1 construct: fused on or other part: P11274 (Breakpoint cluster region protein)

Structure (SMILES) | relative potency in the phenoresponse-based assay
O=C(Nc1cccc(C(F)(F)F)c1)c1cccc(/C=N/Nc2ncc(F)c(N3CCOCC3)n2)n1 [Example C2-122] | less potent than several of the other compounds tested

same assay, conditions: T315I vs control Ba/F3 cells, FIG. 1

Structure (SMILES) | concentration showing the largest specificity gap within the dose-response series [nM]
Oc1c(Cl)cc(Br)cc1/C=N\Nc1ncc(F)c(N2CCOCC2)n1 [Example C2] | 500

same assay, conditions: read-out: T315I (IC50 activity category, growth inhibition by 50%); Ba/F3 T315I cell line

Structure (SMILES) | GI50 [nM]
Fc1cnc(N/N=C/c2ccccc2)nc1N1CCOCC1 | > 10000
Fc1cnc(N/N=C/c2ccc(Nc3cccc(C(F)(F)F)c3)cn2)nc1-c1cncc(C2CC2)c1 | < 10000
O=C(Nc1cccc(C(F)(F)F)c1)c1cccc(/C=N/Nc2ncc(F)c(N3CCOCC3)n2)n1 [drawing 209] | > 10000
O=C(NNc1ncc(F)c(N2CCOCC2)n1)c1ccc(Nc2cccc(C(F)(F)F)c2)cn1 | < 1000
Fc1cnc(N/N=C/c2ccc(Nc3ccc(N4CCOCC4)cc3)cn2)nc1N1CCOCC1 | < 1000
Fc1cnc(N/N=C/c2ccc(Nc3cccc(-n4ccnc4)c3)cn2)nc1N1CCOCC1 | < 1000
O=C(Nc1cccc(C(F)(F)F)c1)c1ccc(/C=N/Nc2ncc(F)c(N3CCOCC3)n2)nc1 | < 1000
Fc1cnc(N/N=C/c2ccc(Nc3cccc(C(F)(F)F)c3)cn2)nc1-c1cncc(-c2ccccc2)c1 | < 1000
Fc1cnc(N/N=C/c2ccccn2)nc1N1CCOCC1 | < 1000
Oc1ccc(Br)cc1/C=N/Nc1ncc(F)c(N2CCOCC2)n1 | < 1000
Cc1cccc(Cl)c1NC(=O)C/C=N/Nc1ncc(F)c(N2CCOCC2)n1 | > 10000
Cc1ccccc1/C=N/Nc1ncc(F)c(N2CCOCC2)n1 | > 10000
Cc1ccc(/C=N/Nc2ncc(F)c(N3CCOCC3)n2)cc1 | > 10000
CN(C)c1cc(O)cc(Nc2ccc(/C=N/Nc3ncc(F)c(N4CCOCC4)n3)nc2)c1 | < 1000
Fc1cnc(N/N=C/c2ccc(-c3cccc(C(F)(F)F)c3)cn2)nc1N1CCOCC1 | < 1000
Cc1cc(Nc2cccc(C(F)(F)F)c2)ccc1/C=N/Nc1ncc(F)c(N2CCOCC2)n1 | > 10000
CC(C(=O)O)c1ccc(Nc2ccc(/C=N/Nc3ncc(F)c(N4CCOCC4)n3)nc2)cc1 (stereo not shown) | > 10000
Cc1cc(Nc2ccc(/C=N/Nc3ncc(F)c(N4CCOCC4)n3)nc2)cc(N2CCNCC2)c1 | < 1000
O=C(Nc1cccc(C(F)(F)F)c1)c1cc(Cl)c(O)c(/C=N\Nc2ncc(F)c(N3CCOCC3)n2)c1 | < 1000
Oc1ccccc1/C=N/Nc1ncc(F)c(N2CCOCC2)n1 | < 10000
Fc1cnc(N/N=C/c2ccc(Nc3ccc(-c4ccccn4)c(Cl)c3)cn2)nc1N1CCOCC1 | < 1000
Oc1cccc(Nc2cccc(Nc3ccc(/C=N/Nc4ncc(F)c(N5CCOCC5)n4)nc3)c2)c1 | < 1000
